Where two headings read alike, the source gives them in different places.
Key:
Assay type in all cases: in vivo
Heliothis virescens = experiment: Tobacco budworm (Heliothis virescens) egg/larval test on insect diet in 96-well microtiter plates; conditions: 120 h, read-out: mortality in comparison with untreated controls
Protocol: B.2 Tobacco Budworm (Heliothis virescens)
For evaluating control of tobacco budworm (Heliothis virescens), the test unit consisted of 96-well-microtiter plates containing an insect diet and 15-25 H. virescens eggs.
The compounds were formulated using a solution containing 75% v/v water and 25% v/v DMSO. Different concentrations of formulated compounds were sprayed onto the insect diet at 10 μl, using a custom-built micro atomizer, at two replications.
After application, microtiter plates were incubated at about 28±1° C. and about 80±5% relative humidity for 5 days. Egg and larval mortality was then visually assessed.

Myzus persicae = experiment: Green peach aphid (Myzus persicae) systemic test, artificial diet in 96-well microtiter plates; conditions: 72 h, read-out: mortality in comparison with untreated controls
Protocol: If not otherwise specified, the test solutions were prepared as follow:
The active compound was dissolved at the desired concentration in a mixture of 1:1 (vol:vol) distilled water:acetone. The test solution was prepared on the day of use.
B.1 Green Peach Aphid (Myzus persicae)
For evaluating control of green peach aphid (Myzus persicae) through systemic means, the test unit consisted of 96-well-microtiter plates containing liquid artificial diet under an artificial mem brane.
The compounds were formulated using a solution containing 75% v/v water and 25% v/v DMSO. Different concentrations of formulated compounds were pipetted into the aphid diet, using a custom built pipetter, at two replications.
After application, 5-8 adult aphids were placed on the artificial membrane inside the microtiter plate wells. The aphids were then allowed to suck on the treated aphid diet and incubated at about 23±1° C. and about 50±5% relative humidity for 3 days. Aphid mortality and fecundity was then visually assessed.

Aedes aegypti = experiment: whole plant or invertebrate; conditions: 48 h, larval mortality, 2 days, read-out: mortality in comparison with untreated controls
Protocol: B.5 Yellow Fever Mosquito (Aedes aegypti)
For evaluating control of yellow fever mosquito (Aedes aegypti) the test unit consisted of 96-well-microtiter plates containing 200 μl of tap water per well and 5-15 freshly hatched A. aegypti larvae.
The active compounds were formulated using a solution containing 75% (v/v) water and 25% (v/v) DMSO. Different concentrations of formulated compounds or mixtures were sprayed onto the insect diet at 2.5 μl, using a custom-built micro atomizer, at two replications.
After application, microtiter plates were incubated at 28±1° C., 80±5% RH for 2 days. Larval mortality was then visually assessed.

Anthonomus grandis = experiment: Boll weevil (Anthonomus grandis) egg/larval test on insect diet in 96-well microtiter plates; conditions: 120 h, read-out: mortality in comparison with untreated controls
Protocol: B.3 Boll Weevil (Anthonomus grandis)
For evaluating control of boll weevil (Anthonomus grandis), the test unit consisted of 96-well-microtiter plates containing an insect diet and 5-10 A. grandis eggs.
The compounds were formulated using a solution containing 75% v/v water and 25% v/v DMSO. Different concentrations of formulated compounds were sprayed onto the insect diet at 5 μl, using a custom-built micro atomizer, at two replications.
After application, microtiter plates were incubated at about 25±1° C. and about 75±5% relative humidity for 5 days. Egg and larval mortality was then visually assessed.

Spodoptera eridania = experiment: Southern armyworm (Spodoptera eridania), 2nd instar larvae, foliar spray on lima bean plants; conditions: 96 h, 2nd instar larvae on sprayed lima bean, 4 days after treatment, read-out: mortality in comparison with untreated controls
Protocol: B.4. Southern Armyworm (Spodoptera eridania), 2nd Instar Larvae
The active compounds were formulated by a Tecan liquid handler in 100% cyclohexanone as a 10,000-ppm solution supplied in tubes. The 10,000-ppm solution was serially diluted in 100% cyclohexanone to make interim solutions. These served as stock solutions for which final dilutions were made by the Tecan in 50% acetone:50% water (v/v) into 10 or 20 ml glass vials. A non-ionic surfactant (Kinetic®) was included in the solution at a volume of 0.01% (v/v). The vials were then inserted into an automated electrostatic sprayer equipped with an atomizing nozzle for application to plants/insects. Lima bean plants (variety Sieva) were grown 2 plants to a pot and selected for treatment at the 1st true leaf stage. Test solutions were sprayed onto the foliage by an auto-mated electrostatic plant sprayer equipped with an atomizing spray nozzle. The plants were dried in the sprayer fume hood and then removed from the sprayer. Each pot was placed into perforated plastic bags with a zip closure. Ten to 11 armyworm larvae were placed into the bag and the bags zipped closed. Test plants were maintained in a growth room at about 25° C. and about 20-40% relative humidity for 4 days, avoiding direct exposure to fluorescent light (14:10 light:dark photoperiod) to prevent trapping of heat inside the bags. Mortality and reduced feeding were assessed 4 days after treatment, compared to untreated control plants.

[1] = 2500 ppm, egg and larval mortality, 5 days
[2] = 2500 ppm, adult aphids on treated artificial diet, 3 days

CC(NC(=O)c1cc(C(F)(F)F)cc(C(F)(F)F)c1)c1nccnc1C(N)=NO (stereo not shown) [I-3, N-[1-[3-[N′-hydroxycarbamimidoyl]pyrazin-2-yl]ethyl]-3,5-bis(trifluoromethyl)benzamide]
≥ 75%: mortality at 2500 ppm (Heliothis virescens; [1]) | mortality at 2500 ppm (Myzus persicae; [2]) | mortality at 2500 ppm (Aedes aegypti) | mortality at 2500 ppm (Anthonomus grandis; [1])

CON=C(N)c1nccnc1C(C)NC(=O)c1cc(C(F)(F)F)cc(C(F)(F)F)c1 (stereo not shown) [I-5, N-[1-[3-[N′-methoxycarbamimidoyl]pyrazin-2-yl]ethyl]-3,5-bis(trifluoromethyl)benzamide]
≥ 75%: mortality at 2500 ppm (Heliothis virescens; [1]) | mortality at 2500 ppm (Myzus persicae; [2]) | mortality at 2500 ppm (Aedes aegypti) | mortality at 2500 ppm (Anthonomus grandis; [1]) | mortality at 300 ppm (Spodoptera eridania)

CON=C(C)c1nccnc1C(C)N(CC1CC1)C(=O)c1cc(C(F)(F)F)cc(C2(C#N)CC2)c1 (stereo not shown) [I-9, 3-(1-cyanocyclopropyl)-N-(cyclopropylmethyl)-N-[1-[3-(N-methoxy-C-methyl-carbonimidoyl)pyrazin-2-yl]ethyl]-5-(trifluoromethyl)benzamide]
≥ 75%: mortality at 2500 ppm (Myzus persicae; [2]) | mortality at 2500 ppm (Aedes aegypti) | mortality at 300 ppm (Spodoptera eridania)

CON=C(C)c1nccnc1C(C)N(CC1CC1)C(=O)c1cc(Cl)cc(S(=O)(=O)c2ccc(F)cc2)c1 (stereo not shown) [I-17, 3-chloro-N-(cyclopropylmethyl)-5-(4-fluorophenyl)sulfonyl-N-[1-[3-(N-methoxy-C-methyl-carbonimidoyl)pyrazin-2-yl]ethyl]benzamide]
≥ 75%: mortality at 2500 ppm (Aedes aegypti) | mortality at 2500 ppm (Anthonomus grandis; [1]) | mortality at 300 ppm (Spodoptera eridania)

CCN(C)C(=NO)c1nccnc1C(C)NC(=O)c1cc(C(F)(F)F)cc(C(F)(F)F)c1 (stereo not shown) [I-170, N-[1-[3-(N-ethyl-N′-hydroxy-N-methyl-carbamimidoyl)pyrazin-2-yl]ethyl]-3,5-bis(trifluoromethyl)benzamide]
≥ 75%: mortality at 2500 ppm (Heliothis virescens) | mortality at 2500 ppm (Myzus persicae) | mortality at 2500 ppm (Aedes aegypti) | mortality at 2500 ppm (Anthonomus grandis)
